# Target: 5-hydroxytryptamine receptor 1A (Rattus norvegicus) (UniProt P19327)
# Assay: Inhibition of specific [3H]OH-DPAT binding at 5-hydroxytryptamine 1A receptor in rat hippocampal membranes
# Sequence of 5-hydroxytryptamine receptor 1A (Rattus norvegicus) (P19327 whole entry, looked up): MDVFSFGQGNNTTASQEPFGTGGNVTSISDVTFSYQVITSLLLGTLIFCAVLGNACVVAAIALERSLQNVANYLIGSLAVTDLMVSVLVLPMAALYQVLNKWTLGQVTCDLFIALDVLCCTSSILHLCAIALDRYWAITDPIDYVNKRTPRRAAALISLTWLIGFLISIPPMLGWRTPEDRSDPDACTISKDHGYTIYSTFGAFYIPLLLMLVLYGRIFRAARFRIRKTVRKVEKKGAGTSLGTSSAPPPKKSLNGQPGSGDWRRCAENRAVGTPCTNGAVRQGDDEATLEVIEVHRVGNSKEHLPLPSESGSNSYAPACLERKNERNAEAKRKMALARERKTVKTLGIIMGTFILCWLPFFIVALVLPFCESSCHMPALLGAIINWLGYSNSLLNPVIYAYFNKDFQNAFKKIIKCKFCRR
row,Ki,Compound
1,379 nM,"CCCN(CCC)C[C@@H]1C[C@@H]1c1ccccc1O [2-((1S,2R)-2-Dipropylaminomethyl-cyclopropyl)-phenol]"
2,506 nM,"CCN(CC)C[C@H]1C[C@@H]1c1ccccc1O [2-((1S,2S)-2-Diethylaminomethyl-cyclopropyl)-phenol]"
3,752 nM,"CCCN(CCC)C[C@H]1C[C@@H]1c1ccccc1O [2-((1S,2S)-2-Dipropylaminomethyl-cyclopropyl)-phenol]"
4,58 nM,"CCCN(CCC)C[C@@H]1C[C@@H]1c1cccc(O)c1 [3-((1S,2R)-2-Dipropylaminomethyl-cyclopropyl)-phenol]"
5,186 nM,"CCCN(CCC)C[C@H]1C[C@@H]1c1cccc(O)c1 [3-((1S,2S)-2-Dipropylaminomethyl-cyclopropyl)-phenol]"
6,431 nM,"CCN(CC)C[C@H]1C[C@@H]1c1ccccc1OC [Diethyl-[(1S,2S)-2-(2-methoxy-phenyl)-cyclopropylmethyl]-amine]"
7,998 nM,"CCCN(CCC)C[C@@H]1C[C@@H]1c1ccccc1OC [[(1R,2S)-2-(2-Methoxy-phenyl)-cyclopropylmethyl]-dipropyl-amine]"
8,388 nM,"CCCN(CCC)C[C@@H]1C[C@@H]1c1cccc(OC)c1 [[(1R,2S)-2-(3-Methoxy-phenyl)-cyclopropylmethyl]-dipropyl-amine]"
9,239 nM,"CCCN(CCC)C[C@H]1C[C@@H]1c1ccccc1OC [[(1S,2S)-2-(2-Methoxy-phenyl)-cyclopropylmethyl]-dipropyl-amine]"
10,310 nM,"CCCN(CCC)C[C@H]1C[C@@H]1c1cccc(OC)c1 [[(1S,2S)-2-(3-Methoxy-phenyl)-cyclopropylmethyl]-dipropyl-amine]"

row,Compound,Ki
1,"CCCN(CCC)[C@@H]1C[C@@H]1c1ccccc1OC [[(1R,2R)-2-(2-Methoxy-phenyl)-cyclopropyl]-dipropyl-amine]",> 10000 nM
2,"CCCN(CCC)[C@@H]1C[C@@H]1c1cccc(OC)c1 [[(1R,2R)-2-(3-Methoxy-phenyl)-cyclopropyl]-dipropyl-amine]",736 nM
3,"CCCN(CCC)[C@H]1C[C@@H]1c1ccccc1OC [[(1S,2R)-2-(2-Methoxy-phenyl)-cyclopropyl]-dipropyl-amine]",17 nM

# Reference: BindingDB's records for doi:10.1016/0960-894X(96)00045-5 (1996)
